# Test results reported in patent US20230313181A1, “HISTIDINE-LYSINE POLYMERS AND METHODS FOR DELIVERING MRNA USING THE SAME” (UNIVERSITY OF MARYLAND, BALTIMORE, priority 2019, published 2023).
# Entries after “also recorded” stand apart in the source; their conditions may differ. Where no end group is shown, it is not given here.
# Assays:
# [1] = tested on: MDA-MB-231 cells; test: In vitro mRNA transfection with HK polyplexes (luciferase mRNA, luciferase activity); type: cell-based; conditions: for RLU/μg-Protein (luciferase activity): mRNA 1 μg, 24 h; for effectiveness as carrier of mRNA (in words): luciferase mRNA, HK polyplex; for mRNA transfection relative to H3K(+H)4b (in words): 4:1 ratio (HK:mRNA)
# Procedure: FIG. 1. Comparison of H3K(+H)4b and H3K4b peptides as carriers of mRNA. To form the HK polyplexes, the mRNA (1 μg) was mixed with 3 different ratios of the HK ([…]) polymer for 30 minutes. The HK polyplexes were then added to the cells for 24 h before the luciferase activity was measured. ****, H3K(+H)4b vs H3K4b, P<0.0001.
# In vitro mRNA Transfection. Several HK polymers were examined for their ability to carry a luciferase-expressing mRNA (CleanCap Firefly Luciferase mRNA, Trilink Biotechnologies, Inc, San Diego, CA) into MDA-MB-231 cells (America Type Tissue Culture, Manassas, VA). In brief, 3×10^4 cells were plated into a 24-well plate containing 500 μl of DMEM and 10% fetal bovine serum (ThermoFisher Scientific, Waltham, MA). After 24 h, when the cells were 60 to 80% confluent, the media in each well was changed to Opti-MEM (ThermoFisher Scientific). To prepare HK polyplexes, mRNA (1 μg) in 50 μl of Opti-MEM was briefly mixed well with one of the HK polymers (4 to 12 μg) and maintained at room temperature for 30 min. This polyplex was then added dropwise to the cells. After four h, the Opti-MEM media was removed and replaced with 0.5 ml of DMEM/10% serum (0.5 ml). Twenty-four hours later, the cells were lysed, and the luciferase activity (Promega Corporation, Madison, WI) was measured.
# To obtain the data in Table 4, luciferase-expressing mRNA (1 μg) in 50 μl of Opti-MEM was briefly mixed with one of the HK polymers (4, 8, or 12 μg) and maintained at room temperature for 30 min. The resulting polyplexes were added dropwise to the MDA-NM-231 cells and after four h, the Opti-MEM media was removed and replaced with DMEM/10% serum. Twenty-four hours later, the cells were lysed, and the luciferase activity was measured
# [2] = tested on: mRNA; test: Heparin displacement assays (gel electrophoresis and Sybr Gold dye intercalation); type: physicochemical; conditions: HK:mRNA 4:1 wt/wt
# Procedure: FIG. 4. Heparin Displacement Assays. After HK polyplexes were formed (wt:wt; HK:mRNA; 4 μg:1 μg), different concentrations of heparin […] were incubated with these for 30 min. A. Gel Retardation. The HK polyplexes were loaded on the agarose gel (1%), and electrophoresis was carried out and stained with Sybr Gold. B. Fluorescent dye intercalation. After the HK polyplexes were formed and incubated with several concentrations of heparin, the Sybr Gold nucleic acid dye was incubated with the HK polyplexes for 5 mins. Fluorescence was then measured by a microplate fluorimeter (λex=497 nm, λem=520 nm) (SynergyMx, BioTek). *, P<0.05; ***, P<0.001; H3K4b or H2K vs. H3K(+H)4b.
# Heparin Displacement Assays. Heparin displacement assays of HK polyplexes were done with the dye intercalation assay and with gel electrophoresis. A fluorescent assay assessed polyplexes of HK polymer and mRNA (4:1 wt/wt ratio; polymer:mRNA) formed in RNAse/DNAase free water (Corning, Manassas, VA). HK polyplexes were prepared as described previously, followed by the addition of diluted Syber Gold. For detection, working dilutions of the polyplexes (1/5 of volume), water (3/5) and Sybr Gold dye (1/5, 0.2×) were incubated for 5 minutes, and fluorescence was measured by a fluorimeter (Ex=497 nm, Em=520 nm) (SynergyMx, BioTek, Winooski, VT). The control sample was prepared with the same amount of mRNA, water, and Sybr Gold dye. For the heparin displacement, instead of water, heparin salt (Sigma-Aldrich, St. Louis, MO) solutions at different concentrations (0.5, 1, 1.5, 2, 3 μg/μl) were used, and the HK polyplexes were incubated at 37° C. for 30 min before addition of Sybr Gold.
# Displacement of mRNA from HK polyplexes with heparin was also done with gel electrophoresis. After HK polyplexes were formed, different concentrations of heparin (0.5, 1.0, 1.5, 2.0, 3.0 μg/μl; volume 20 μl) were incubated with these at 37° C. for 30 min. The polyplexes were then loaded on the agarose gel (1%; 10× BlueJuice Gel loading buffer), and electrophoresis was carried out and stained with SG as described above. […]
# [3] = prior studies [27]; cited from earlier work
# [4] = prior studies [34, 35, 45]; cited from earlier work
# [5] = prior study [43]; cited from earlier work
# [6] = tested on: human cells; conditions: cited from earlier work
# [7] = ratio mRNA:polymer 1:12 (wt:wt)
substance,measurement,setting,value
"H2K4b: four-branched HK polymer on three-lysine core, each branch R = KHKHHKHHKHHKHHKHHKHK- (SEQ ID NO: 5) (also: one of four branches on a three-lysine core)",RLU/μg-Protein (luciferase activity),[1]; ratio mRNA:polymer 1:4 (wt:wt),546.7 ± 70.1 RLU/μg-Protein
same,RLU/μg-Protein (luciferase activity),[1]; ratio mRNA:polymer 1:8 (wt:wt),132.3 ± 58.5 RLU/μg-Protein
same,RLU/μg-Protein (luciferase activity),[1]; [7],194.7 ± 18.4 RLU/μg-Protein
same,binding/release of mRNA and polyplex stability on exposure to heparin (in words),[2],too stable
same,carrier of DNA plasmids (in words),[3],good carrier of large molecular weight DNA plasmids
same,carrier of siRNA (in words),[4],poor carrier of relatively low molecular weight siRNA
"H3K(1+H)4b: four-branched HK polymer, each branch R = KHHHKHHHKHHHKHHHHK- (SEQ ID NO: 12) (also: one of four branches on a branched lysine core)",effectiveness as carrier of mRNA (in words),[1],poor carriers of mRNA
same,RLU/μg-Protein (luciferase activity),[1]; ratio mRNA:polymer 1:4 (wt:wt),24.3 ± 4.5 RLU/μg-Protein
same,RLU/μg-Protein (luciferase activity),[1]; ratio mRNA:polymer 1:8 (wt:wt),15.0 ± 3.6 RLU/μg-Protein
same,RLU/μg-Protein (luciferase activity),[1]; [7],7.3 ± 2.5 RLU/μg-Protein
"H3K(1,3+H)4b: four-branched HK polymer, each branch R = KHHHKHHHHKHHHKHHHHK- (SEQ ID NO: 14) (also: one of four branches on a branched lysine core)",fold less effective in transfecting mRNA compared to H3K(+H)4b,[1]; 4:1 ratio (HK:mRNA; wt:wt),about 2.5 fold
same,RLU/μg-Protein (luciferase activity),[1]; ratio mRNA:polymer 1:4 (wt:wt),518.3 ± 134.7 RLU/μg-Protein
same,RLU/μg-Protein (luciferase activity),[1]; ratio mRNA:polymer 1:8 (wt:wt),427.7 ± 18.1 RLU/μg-Protein
same,RLU/μg-Protein (luciferase activity),[1]; [7],378 ± 5.2 RLU/μg-Protein
"H3K(3+H)4b: four-branched HK polymer, each branch R = KHHHKHHHHKHHHKHHHK- (SEQ ID NO: 13) (also: one of four branches on a branched lysine core)",effectiveness as carrier of mRNA (in words),[1],poor carriers of mRNA
same,RLU/μg-Protein (luciferase activity),[1]; ratio mRNA:polymer 1:4 (wt:wt),61.7 ± 5.7 RLU/μg-Protein
same,RLU/μg-Protein (luciferase activity),[1]; ratio mRNA:polymer 1:8 (wt:wt),68.7 ± 3.1 RLU/μg-Protein
same,RLU/μg-Protein (luciferase activity),[1]; [7],59.0 ± 7.5 RLU/μg-Protein
H3k4b (KHHHKHHHKHHHKHHHK; also: one of four branches on a branched lysine core),antimicrobial activity (in words),[5],greater antimicrobial activity
same,cytotoxicity to human cells (in words),[6],no observed cytotoxicity to human cells
"H4K4b: four-branched HK polymer, each branch R = KHHHHKHHHHKHHHHKHHHHK- (SEQ ID NO: 11) (also: one of four branches on a branched lysine core)",mRNA transfection relative to H3K(+H)4b (in words),[1],did not enhance mRNA transfection
same,effectiveness as carrier of mRNA (in words),[1],effective carriers of mRNA
same,RLU/μg-Protein (luciferase activity),[1]; ratio mRNA:polymer 1:4 (wt:wt),896.4 ± 112.6 RLU/μg-Protein
same,RLU/μg-Protein (luciferase activity),[1]; ratio mRNA:polymer 1:8 (wt:wt),821.8 ± 115.6 RLU/μg-Protein
same,RLU/μg-Protein (luciferase activity),[1]; [7],522.4 ± 69.2 RLU/μg-Protein
"H-H3K(+H)4b: four-branched HK polymer, each branch R = HKHHHKHHHKHHHHKHHHK- (SEQ ID NO: 9) (also: one of four branches on a branched lysine core)",mRNA transfection relative to H3K(+H)4b (in words),[1],did not improve mRNA transfection more than H3K(+H)4b
same,effectiveness as carrier of mRNA (in words),[1],effective carriers of mRNA; also recorded: markedly more effective as a carrier of mRNA
same,RLU/μg-Protein (luciferase activity),[1]; ratio mRNA:polymer 1:4 (wt:wt),1107.5 ± 140.4 RLU/μg-Protein
same,RLU/μg-Protein (luciferase activity),[1]; ratio mRNA:polymer 1:8 (wt:wt),874.6 ± 65.2 RLU/μg-Protein
same,RLU/μg-Protein (luciferase activity),[1]; [7],676.4 ± 25.7 RLU/μg-Protein
